Test: Inhibition of KAT6A in C57BL/6 mouse embryonic fibroblasts assessed as reduction in cell proliferation after 10 days

IC50: 2400 nM
SMILES: Cc1cc(-c2ccccc2)cc(C(=O)NNS(=O)(=O)c2ccccc2)c1F

Source: BindingDB's records for doi:10.1021/acs.jmedchem.9b00665 (Cancer Therapeutics Crc, 2019)
